{"source": "patent US20100062067A1", "about": "“COMPOSITIONS COMPRISING MACROMOLECULAR ASSEMBLIES OF LIPID AND SURFACTANT” (MALVERN COSMECEUTICS LIMITED, priority 2006, published 2010)", "key": {"[1]": {"assay": "Turbidity of surfactant/lipid compositions, formation of macromolecular complexes (Example 1)", "assay_type": "physicochemical", "conditions": "2.5% surfactant, 1% 90H lipid, ca. 0.01% S LPC co-surfactant (as 0.05% SL 80-3) in water, room temperature", "procedure": "Briefly, to the appropriate volume of warm water (ca. 60° C.), SL 80-3 was added. […] 90H was then added gradually, with heating and stirring maintained throughout and for a further 45 minutes after completion.\nAfter mixing the solution was stirred and heated to around 60-70° C.\nThe required quantity of warm lipid emulsion was slowly added to the warm surfactant solution while stirring with the temperature maintained."}, "[2]": {"assay": "Visual clarity of surfactant/lipid mixtures in water (Comparative Example 1)", "assay_type": "physicochemical", "procedure": "The appropriate quantity of lipid and surfactant was added to water, which was then warmed to approximately 50° C. and stirred until a uniform emulsion was formed. The mixture was then homogenised for 10 minutes. Percentage values specified in this experiment refer to the weight of the component in question as a proportion of the total weight of the composition. Once the mixtures were prepared they were visually examined to determine whether the surfactant component had solubilized the lipid component in the aqueous medium. The clarity of a mixture was categorized as being clear if there was no significant visible opacity to the naked eye, whereas a mixture was categorized as cloudy if there was significant visible disruption to the passage of light."}, "[3]": {"assay": "Clarity and turbidity of surfactant/active agent mixtures in water (Comparative Example 2)", "assay_type": "physicochemical", "conditions": "surfactant 5% w/w + TECA 0.5% w/w in water, visual", "protocol": "The appropriate quantity of surfactant and active agent was added to water, which was then warmed to approximately 50° C. and stirred. The mixture was then homogenised for 10 minutes. Percentage values specified in this experiment refer to the weight of the component in question as a proportion of the total weight of the composition. Once the mixtures were prepared they were visually examined to determine whether the surfactant component had solubilized the active agent in the aqueous medium. The clarity of a mixture was categorized as being clear if there was no significant visible opacity to the naked eye, whereas a mixture was categorized as cloudy if there was significant visible disruption to the passage of light. For a quantitative analysis of the clarity of aqueous solutions of surfactant and active, certain samples were examined using a turbidity meter ([…] , from Hach-Lange). The turbidity meter was calibrated prior to use, with two known standards (0 and 40 FNU)."}, "[4]": {"conditions": "rough average of manufacturer and literature values; cited from earlier work"}, "[5]": {"assay": "Appearance of aqueous gel preparations (Examples 10 and 11)", "assay_type": "physicochemical", "conditions": "Example 11: TECA and VC-P solutions mixed with Blanose 7HF gel with Nipaguard DMDMH", "procedure": "(§1) A stock solution of surfactant, co-surfactant, lipid and active agent was initially prepared in water at double the desired final concentration. Briefly, co-surfactant, lipid and active agent were dissolved in ethanol, while heating (approximately 30° C.) and stirring. Surfactant material was then added whilst maintaining heat and stir conditions. Ethanol was subsequently removed via rotary evaporation and the resulting dry material was then resolubilized in water with warming (ca. 50° C.) at double the desired final concentration.\nNipaguard PDU was dissolved into water while heating (approximately 30° C.) and stirring. Blanose® 7HF was then added until a uniform gel was formed.\nSolution A and Solution B were then mixed in equal volumes to produce the final preparation.\nas §1, with “prepared.” for “prepared in water at double the desired final concentration.”, “four times” for “double”\nA stock solution of surfactant, co-surfactant, lipid and active agent was initially prepared. […]"}, "[6]": {"conditions": "cited from earlier work"}, "[7]": {"assay": "Solubilisation of piroctone olamine in compositions of the invention (Example 7)", "assay_type": "physicochemical", "conditions": "dried material (15 g Brij 35P, 6 g 90H, 0.3 g SL 80-3, 4.8 g active) re-solubilized into 50 g of water", "procedure": "Macromolecular assemblies of the present invention which incorporated piroctone olamine were prepared in isopropanol using a method analogous to that described in Example 6 (in that case using ethanol solvent), before being dried by rotary evaporation. The dried material having the composition: • Surfactant—15 g Brij 35P • Lipid—6 g 90H • Co-surfactant (indirectly)—0.3 g SL 80-3 • Active agent—4.8 g piroctone olamine • i.e. total piroctone olamine by weight=18.4%\nThe dried material was then re-solubilized into 50 g of water to provide a concentrated solution (i.e. using the present invention enables aqueous formulations containing at least 9.6% piroctone olamine by weight to be prepared)."}, "[8]": {"conditions": "cited from earlier work", "remark": "listed apart in the source"}, "[9]": {"conditions": "Surf. Brij 35P 2.5%, lipid 90H 1.0%, co-surf. S LPC ca. 0.01% (as SL 80-3 0.05%), active agent 0.10%", "protocol": "A stock emulsion of co-surfactant, lipid and active agent was prepared at double the desired final concentration. Co-surfactant was dissolved in water while heating (approximately 60° C.) and stirring, with the conditions maintained for approximately 15 further minutes before the mixture was homogenised (approximately 1 minute at 13,000 RPM, POLYTRON PT 3100 Homogeniser). Lipid was then added gradually, followed by continued stirring and heating until a uniform emulsion is formed. After approximately 45 minutes the mixture was then homogenised (approximately 3 minute at 15,000 RPM). The temperature was then brought to around 50° C. before the active component was added slowly under stirring until a uniform emulsion was present. The final emulsion was then homogenised (approximately 1 minute, ULTRA-TURRAX®-Janke & Kunkel).\nA stock solution of surfactant was prepared at double (i.e. 5%) the desired final concentration of 2.5%, by mixing of the surfactant with the appropriate volume of water.\nMacromolecular complexes incorporating active agents were then prepared by the dropwise addition of the warm lipid containing emulsion to an equal volume of surfactant solution while stirring and heating 50° C.\nSamples were then allowed to cool to room temperature before being analyzed.\nFor a quantitative analysis of the clarity of aqueous solutions of surfactant, lipid and active, samples were examined using a turbidity meter (Nephla, from Hach-Lange). The turbidity meter was calibrated prior to use, with two known standards (0 and 40 FNU)."}, "[10]": {"assay": "Reconstitution of dried (freeze-dried or rotary evaporated) formulations in water", "assay_type": "physicochemical", "conditions": "rotary evaporated Brij 35P/90H/SL 80-3/progesterone composition", "source_text": "Of those samples which were dried, all were easily reconstituted into water at the same concentration as prior to drying.\nReconstitution of the freeze-dried composition containing Brij 35P (2.5%), 90H (1%), SL 80-3 (0.05%) and TECA (0.8%), indicated in the table above by #, was successful at a concentration of 32.4% by dry weight (i.e. an overall concentration of 6% active in the final aqueous solution).\nThe rotary evaporated composition containing Brij 35P (2.5%), 90H (1%), SL 80-3 (0.05%) and progesterone (0.1%), indicated in the table above by t, was reconstituted in water to provide a clear and colourless solution with a progesterone concentration of 0.25% (i.e. 2500 ug/ml, 2.7% progesterone by dry weight)."}}, "note": "Like-named read-outs stand apart in the source and are kept apart here. Marks after values point to notes of the source that are not given here."}
{"molecule": "CCCCCCCCCCCCOS(=O)(=O)[O-].[Na+]", "note": "[SDS, Sodium dodecyl sulphate]", "values": [{"measurement": "Average Turbidity", "setting": "[1]", "result": 26.2, "unit": "FNU"}, {"measurement": "Clarity", "setting": "[2]; surfactant 2.5% w/w + lipid 90H 1.0% w/w in water", "result": "Cloudy"}, {"measurement": "Clarity", "setting": "[2]; surfactant 5.0% w/w + lipid 90H 1.0% w/w in water", "result": "Clear"}, {"measurement": "Clarity", "setting": "[3]", "result": "Cloudy"}, {"measurement": "Average HLB", "setting": "[4]", "result": 40}]}
{"molecule": "vitamin C dipalmitate [VC-P]", "values": [{"measurement": "Appearance of cosmetic gel preparation", "setting": "[5]", "result": "clear and colourless aqueous gel"}]}
{"molecule": "Cc1cc(CC(C)CC(C)(C)C)n(O)c(=O)c1.NCCO", "note": "(stereo not shown) [piroctone olamine]", "values": [{"measurement": "Aqueous solubility with surfactant", "setting": "[6]; 15% SDS, pH 7, room temperature", "result": "approximately 2.8%"}, {"measurement": "Solubility", "setting": "[6]; in 1,2-Propyleneglycol", "result": 16.0, "unit": "%"}, {"measurement": "Solubility", "setting": "[6]; in Ethanol", "result": 10.0, "unit": "%"}, {"measurement": "Solubility", "setting": "[6]; in Glycerol", "result": 1.7, "unit": "%"}, {"measurement": "Solubility", "setting": "[6]; in Isopropanol", "result": 5.0, "unit": "%"}, {"measurement": "Solubility", "setting": "[6]; in PEG-400", "result": 1.9, "unit": "%"}, {"measurement": "Solubility", "setting": "[6]; in Water", "result": 0.05, "unit": "%"}, {"measurement": "Active agent content of concentrated aqueous formulation", "setting": "[7]", "result": "at least 9.6 % by weight"}]}
{"molecule": "CC(=O)[C@H]1CC[C@H]2[C@@H]3CCC4=CC(=O)CC[C@]4(C)[C@H]3CC[C@]12C", "note": "[progesterone]", "values": [{"measurement": "Active loading by dry weight", "setting": "[8]; WO00/50007, 1.76 mg/ml using 198 mg of carrier", "result": "approximately 1.0%"}, {"measurement": "Maximum concentration in aqueous dispersion", "setting": "[8]; WO00/50007, using 198 mg of carrier", "result": 1.76, "unit": "mg/mL"}, {"measurement": "Maximum concentration in aqueous dispersion", "setting": "[8]; delivery system of WO00/50007 (Example 47), higher carrier concentration", "result": 1.76, "unit": "mg/mL"}, {"measurement": "Turbidity (FNU)", "setting": "[9]", "result": "34.20† FNU"}, {"measurement": "Active agent by dry weight", "setting": "[10]", "result": 2.7, "unit": "%"}]}
